Test results published in patent publication US6960614B2, “Oxygenated esters of 4-lodo phenylamino benzhydroxamic acids” (Warner-Lambert Company, priority 2000, dated 2005).
pIC50: −log10 of the molar value.

Tested on: MEK
Experiment: Cellular Assay for Measuring MEK Inhibition (inhibition of ERK phosphorylation in C26 cells, Western blot)
Assay type: cell-based, murine
Details: for % Inhibition @ 0.1 μM / % Inhibition @ 1 μM / % Inhibition @ 10 μM: ERK phosphorylation in C26 cells; for pIC50: inhibition of ERK phosphorylation in murine colon 26 (C26) carcinoma cells, determined graphically from dose response curve
Description: The evaluation of the compounds as MEK inhibitors was performed in an assay that measures their ability to inhibit phosphorylation of MAP kinase […]) in murine colon 26 (C26) carcinoma cells. Since ERK1 and ERK2 represent the only known substrates for MEK, measurement of inhibition of ERK phosphorylation in cells provides direct readout of cellular MEK inhibition by the compounds of the invention. Briefly, the assay involves treating exponentially growing C26 cells with varying concentrations of the test compound (or vehicle control) for […] at 37° C. Cells are then rinsed free of compound/vehicle and lysed in a solution containing 70 mM NaCl, 50 mM glycerol phosphate, 10 mM HEPES, pH 7.4, 1% Triton X-100, 1 mM Na3VO4, 100 μM PMSF, 10 μM leupeptin and 10 μM pepstatin. Supernatants are then subjected to gel electrophoresis and Western blotting using a primary antibody recognizing dually phosphorylated ERK1 and ERK2. To evaluate total MAPK levels, blots were subsequently ‘stripped’ and re-probed with a 1:1 mixture of polyclonal antibodies recognizing unphosphorylated ERK1 and ERK2.

Row | Compound | % Inhibition @ 0.1 μM [%] | % Inhibition @ 1 μM [%] | pIC50 | % Inhibition @ 10 μM [%]
1 | CCC(O)CONC(=O)c1cc(F)c(F)c(F)c1Nc1ccc(I)cc1Cl (centres unmarked) [Example 105, 2-(2-Chloro-4-iodo-phenylamino)-3,4,5-trifluoro-N-(2-hydroxy-butoxy)-benzamide] | 3.3 | 71.3 |  | 
2 | CCC(O)CONC(=O)c1cc(F)c(F)c(F)c1Nc1ccc(I)cc1C (centres unmarked) [Example 106, 3,4,5-Trifluoro-N-(2-hydroxy-butoxy)-2-(4-iodo-2-methyl-phenylamino)-benzamide] | 13.2 | 81.6 |  | 
3 | CCC(O)CONC(=O)c1cc(Br)c(F)c(F)c1Nc1ccc(I)cc1Cl (centres unmarked) [Example 107, 5-Bromo-2-(2-chloro-4-iodo-phenylamino)-3,4-difluoro-N-(2-hydroxy-butoxy)-benzamide] |  |  | 7.12 | 
4 | CCC(O)CONC(=O)c1cc(Br)c(F)c(F)c1Nc1ccc(I)cc1C (centres unmarked) [Example 108, 5-Bromo-3,4-difluoro-N-(2-hydroxy-butoxy)-2-(4-iodo-2-methyl-phenylamino)-benzamide] | 74 | 94.6 |  | 
5 | CCC(O)CONC(=O)c1ccc(F)c(F)c1Nc1ccc(I)cc1C (centres unmarked) [Example 109, 3,4-Difluoro-N-(2-hydroxy-butoxy)-2-(4-iodo-2-methyl-phenylamino)-benzamide] |  |  | 7.42 | 
6 | CCC(O)CONC(=O)c1cc(Cl)c(F)c(F)c1Nc1ccc(I)cc1C (centres unmarked) [Example 111, 5-Chloro-3,4-difluoro-N-(2-hydroxy-butoxy)-2-(4-iodo-2-methyl-phenylamino)-benzamide] | 78 | 93.4 |  | 
7 | CCC(O)CONC(=O)c1ccc(F)c(F)c1Nc1ccc(I)cc1F (centres unmarked) [Example 112, 3,4-Difluoro-2-(2-fluoro-4-iodo-phenylamino)-N-(2-hydroxy-butoxy)-benzamide] | 95.2 | 95.5 |  | 
8 | CCC(O)CONC(=O)c1cc(Br)c(F)c(F)c1Nc1ccc(I)cc1F (centres unmarked) [Example 113, 5-Bromo-3,4-difluoro-2-(2-fluoro-4-iodo-phenylamino)-N-(2-hydroxy-butoxy)-benzamide] | 89.9 | 94.6 |  | 
9 | CCC(O)CONC(=O)c1cc(Cl)c(F)c(F)c1Nc1ccc(I)cc1F (centres unmarked) [Example 114, 5-Chloro-3,4-difluoro-2-(2-fluoro-4-iodo-phenylamino)-N-(2-hydroxy-butoxy)-benzamide] | 90.5 | 97.3 |  | 
10 | CCC(O)CONC(=O)c1cc(F)c(F)cc1Nc1ccc(I)cc1F (centres unmarked) [Example 115, 4,5-Difluoro-2-(2-fluoro-4-iodo-phenylamino)-N-(2-hydroxy-butoxy)-benzamide] | 94.8 | 98.5 |  | 
11 | CCC(O)CONC(=O)c1cc(Cl)c(F)c(F)c1Nc1ccc(F)cc1F (centres unmarked) [Example 116, 5-Chloro-2-(2,4-difluoro-phenylamino)-3,4-difluoro-N-(2-hydroxy-butoxy)-benzamide] |  | 62.8 |  | 75.8
12 | CCC(O)CONC(=O)c1ccc(F)c(F)c1Nc1ccc(F)cc1F (centres unmarked) [Example 117, 2-(2,4-Difluoro-phenylamino)-3,4-difluoro-N-(2-hydroxy-butoxy)-benzamide] | 0 | 66.7 |  | 86.9
13 | CCC(O)CONC(=O)c1ccc(F)c(F)c1Nc1ccc(Br)cc1F (centres unmarked) [Example 118, 2-(4-Bromo-2-fluoro-phenylamino)-3,4-difluoro-N-(2-hydroxy-butoxy)-benzamide] | 74.6 | 95.6 |  | 
14 | Cc1cc(I)ccc1Nc1c(C(=O)NOC(C)CO)cc(Cl)c(F)c1F (centres unmarked) [Example 119, 5-Chloro-3,4-difluoro-N-(2-hydroxy-1-methyl-ethoxy)-2-(4-iodo-2-methyl-phenylamino)-benzamide] | 87.4 | 97.9 |  | 
15 | CC(CO)ONC(=O)c1ccc(F)c(F)c1Nc1ccc(I)cc1Cl (centres unmarked) [Example 120, 2-(2-Chloro-4-iodo-phenylamino)-3,4-difluoro-N-(2-hydroxy-1-methyl-ethoxy)-benzamide] |  |  | 7.85 | 
16 | CC(CO)ONC(=O)c1cc(F)c(F)c(F)c1Nc1ccc(I)cc1Cl (centres unmarked) [Example 121, 2-(2-Chloro-4-iodo-phenylamino)-3,4,5-trifluoro-N-(2-hydroxy-1-methyl-ethoxy)-benzamide] | 46.9 | 85.5 |  | 
17 | Cc1cc(I)ccc1Nc1c(C(=O)NOC(C)CO)cc(F)c(F)c1F (centres unmarked) [Example 122, 3,4,5-Trifluoro-N-(2-hydroxy-1-methyl-ethoxy)-2-(4-iodo-2-methyl-phenylamino)-benzamide] | 49.6 | 87.3 |  | 
18 | CC(CO)ONC(=O)c1cc(Br)c(F)c(F)c1Nc1ccc(I)cc1Cl (centres unmarked) [Example 123, 5-Bromo-2-(2-chloro-4-iodo-phenylamino)-3,4-difluoro-N-(2-hydroxy-1-methyl-ethoxy)-benzamide] |  |  | 7.68 | 
19 | Cc1cc(I)ccc1Nc1c(C(=O)NOC(C)CO)cc(Br)c(F)c1F (centres unmarked) [Example 124, 5-Bromo-3,4-difluoro-N-(2-hydroxy-1-methyl-ethoxy)-2-(4-iodo-2-methyl-phenylamino)-benzamide] | 78 | 96.9 |  | 
20 | CC(CO)ONC(=O)c1ccc(F)c(F)c1Nc1ccc(Cl)cc1F (centres unmarked) [Example 125, 2-(4-Chloro-2-fluoro-phenylamino)-3,4-difluoro-N-(2-hydroxy-1-methyl-ethoxy)-benzamide] | 9.1 | 89 |  | 
21 | Cc1cc(I)ccc1Nc1c(C(=O)NOC(C)CO)ccc(F)c1F (centres unmarked) [Example 126, 3,4-Difluoro-N-(2-hydroxy-1-methyl-ethoxy)-2-(4-iodo-2-methyl-phenylamino)-benzamide] |  |  | 7.59 | 
22 | CC(CO)ONC(=O)c1cc(Cl)c(F)c(F)c1Nc1ccc(I)cc1Cl (centres unmarked) [Example 127, 5-Chloro-2-(2-chloro-4-iodo-phenylamino)-3,4-difluoro-N-(2-hydroxy-1-methyl-ethoxy)-benzamide] |  |  | 7.60 | 
23 | CC(CO)ONC(=O)c1ccc(F)c(F)c1Nc1ccc(I)cc1F (centres unmarked) [Example 128, 3,4-Difluoro-2-(2-fluoro-4-iodo-phenylamino)-N-(2-hydroxy-1-methyl-ethoxy)-benzamide] |  |  | 8.05 | 
24 | CC(CO)ONC(=O)c1cc(Br)c(F)c(F)c1Nc1ccc(I)cc1F (centres unmarked) [Example 129, 5-Bromo-3,4-difluoro-2-(2-fluoro-4-iodo-phenylamino)-N-(2-hydroxy-1-methyl-ethoxy)-benzamide] | 100 | 100 |  | 
25 | CC(CO)ONC(=O)c1cc(Cl)c(F)c(F)c1Nc1ccc(I)cc1F (centres unmarked) [Example 130, 5-Chloro-3,4-difluoro-2-(2-fluoro-4-iodo-phenylamino)-N-(2-hydroxy-1-methyl-ethoxy)-benzamide] |  |  | 8.40 | 
26 | CC(CO)ONC(=O)c1cc(F)c(F)cc1Nc1ccc(I)cc1F (centres unmarked) [Example 131, 4,5-Difluoro-2-(2-fluoro-4-iodo-phenylamino)-N-(2-hydroxy-1-methyl-ethoxy)-benzamide] | 78.7 | 91.3 |  | 
27 | CC(CO)ONC(=O)c1cc(Cl)c(F)c(F)c1Nc1ccc(F)cc1F (centres unmarked) [Example 132, 5-Chloro-2-(2,4-difluoro-phenylamino)-3,4-difluoro-N-(2-hydroxy-1-methyl-ethoxy)-benzamide] |  | 45.7 |  | 80.6
